This assay deals with T1, CD22 (Homo sapiens, UniProt P20273).
T1 construct: The soluble CD22 protein was expressed in the CHO-Lec1 cell line; made in house; host or cells: CHO-Lec1
T1 sequence (P20273 20-687 limits assumed): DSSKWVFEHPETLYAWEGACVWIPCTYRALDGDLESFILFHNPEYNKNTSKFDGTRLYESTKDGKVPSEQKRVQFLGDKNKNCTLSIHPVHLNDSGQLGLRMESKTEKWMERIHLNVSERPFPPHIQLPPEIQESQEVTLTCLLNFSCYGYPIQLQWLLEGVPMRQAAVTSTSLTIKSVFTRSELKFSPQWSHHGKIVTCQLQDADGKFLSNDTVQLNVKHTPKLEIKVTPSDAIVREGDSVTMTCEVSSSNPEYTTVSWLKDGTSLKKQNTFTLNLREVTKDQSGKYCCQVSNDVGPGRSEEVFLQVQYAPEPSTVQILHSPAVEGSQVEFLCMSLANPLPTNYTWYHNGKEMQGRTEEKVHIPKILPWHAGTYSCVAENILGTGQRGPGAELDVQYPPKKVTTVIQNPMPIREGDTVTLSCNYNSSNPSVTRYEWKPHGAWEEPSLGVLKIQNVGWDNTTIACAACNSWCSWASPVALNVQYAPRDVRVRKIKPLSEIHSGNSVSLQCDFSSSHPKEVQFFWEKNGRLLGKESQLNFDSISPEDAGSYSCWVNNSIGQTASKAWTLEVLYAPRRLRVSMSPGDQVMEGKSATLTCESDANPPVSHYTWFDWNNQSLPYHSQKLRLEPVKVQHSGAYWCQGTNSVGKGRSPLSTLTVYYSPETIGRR
Kind of assay: ELISA-based inhibition assay: inhibition of binding of soluble CD22 to immobilized IgM. To be noted: for rIP (relative inhibitory potency) / IC50: Table I; for rIP (relative inhibitory potency): relative to reference BPCNeu5Ac (rIP = 1); for IC50: soluble CD22 binding to immobilized IgM. The protocol: The biological activity of the substances was determined in an ELISA-based inhibition assay as described in “Eur. J. Immunol. 2012, 42, 2792-2802”. The sialic acid derivatives of the formula (I) inhibit the binding of soluble CD22 to immobilized IgM in proportion to their affinity for CD22. The soluble CD22 protein was expressed in the CHO-Lec1 cell line and isolated as described by “Eur. J. Immunol. 2012, 42, 2792-2802”. […] The increase in affinity is reported as rIP (relative inhibitory affinity).
A general note: An ELISA detects its analyte on a solid surface through an enzyme-linked reagent.

Setting [1] is: Table III, relative to reference compound 17 co-tested in the same assay (rIP = 1).
Setting [2] is: Table II, relative to reference compound 10 co-tested in the same assay (rIP = 1).

What is called IC50 is the point on the concentration scale where inhibition reaches its midpoint. Read a low IC50 as inhibition by little substance. As to `CO[C@]1(C(=O)[O-])C[C@H](O)[C@@H](NC(C)=O)[C@H]([C@H](O)[C@H](O)CNC(=O)c2ccc(-c3ccccc3)cc2)O1.[Na+]` [BPC Neu5 Ac, reference compound], the “rIP (relative inhibitory potency)” value turned out to be 1 and the IC50 was 6100 nM.
In turn, `CCC(=O)N[C@@H]1[C@@H](NC(C)=O)[C@H]([C@H](O)[C@H](O)CNC(=O)c2ccc(-c3ccccc3)cc2)O[C@@](OCCCCCC(=O)O)(C(=O)O)[C@H]1O` [Compound 10] displayed an IC50 of 6 nM.
For the compound `CC(=O)N[C@@H]1[C@@H](NS(C)(=O)=O)[C@H](O)[C@](OCCCCCC(=O)O)(C(=O)O)O[C@H]1[C@H](O)[C@H](O)CNC(=O)c1ccc(-c2ccccc2)cc1` [Compound 11], the IC50 was determined as 7.7 nM.
Take `CC(=O)N[C@H]1[C@H]([C@H](O)[C@H](O)CNC(=O)c2ccc(-c3ccccc3)cc2)O[C@@](OCCCCCC(=O)[O-])(C(=O)[O-])C[C@@H]1NS(=O)(=O)[O-].[Na+].[Na+].[Na+]` [Compound 15]: the “rIP (relative inhibitory potency)” value turned out to be 1920 and the IC50 turned out to be 3.2 nM.
Consider `CCC(=O)N[C@H]1C[C@](OCCCCCC(=O)[O-])(C(=O)[O-])O[C@@H]([C@H](O)[C@H](O)CNC(=O)c2ccc(-c3ccccc3)cc2)[C@@H]1NC(C)=O.[Na+].[Na+]` [Compound 17], for which the “rIP (relative inhibitory potency)” value amounted to 502 and the IC50 is 12 nM. The compound further had a rIP under setting [1] of 1.
In the case of `CC(=O)N[C@H]1[C@H]([C@H](O)[C@H](O)CNC(=O)c2ccc(-c3ccccc3)cc2)O[C@@](OCCCSCCC(=O)[O-])(C(=O)[O-])C[C@@H]1OS(=O)(=O)[O-].[Na+].[Na+].[Na+]` [Compound 20], the “rIP (relative inhibitory potency)” value stood at 3130 and the IC50 stood at 2 nM.
For `CC(=O)N[C@H]1[C@H]([C@H](O)[C@H](O)CNC(=O)c2ccc(-c3ccccc3)cc2)O[C@@](OCCCSCCC(=O)O)(C(=O)O)C[C@@H]1NC(=O)OC(C)(C)C` [Compound 29], the IC50 was found to be 85 nM.
Turning to `CC(=O)N[C@H]1[C@H]([C@H](O)[C@H](O)CNC(=O)c2ccc(-c3ccc(F)cc3)cc2)O[C@@](OCCCCCC(=O)[O-])(C(=O)[O-])C[C@@H]1NS(=O)(=O)[O-].[Na+].[Na+].[Na+]` [Compound 37], the “rIP (relative inhibitory potency)” value was 405 and the IC50 was 15 nM.
`CC(=O)N[C@@H]1[C@@H](NC(C)=O)[C@H](O)[C@](OCCCCCC(=O)[O-])(C(=O)[O-])O[C@H]1[C@H](O)[C@H](O)CNC(=O)c1ccc(-c2ccccc2)cc1.[Na+].[Na+]` [Compound 38]: the rIP under setting [2] amounted to 0.45.
For the compound `CC(=O)N[C@@H]1[C@@H](NC(=O)C(C)C)[C@H](O)[C@](OCCCCCC(=O)[O-])(C(=O)[O-])O[C@H]1[C@H](O)[C@H](O)CNC(=O)c1ccc(-c2ccccc2)cc1.[Na+].[Na+]` [Compound 39], the rIP under setting [2] was determined as 0.70.
Under setting [2], `CC(=O)N[C@@H]1[C@@H](NC(=O)C(C)(C)C)[C@H](O)[C@](OCCCCCC(=O)[O-])(C(=O)[O-])O[C@H]1[C@H](O)[C@H](O)CNC(=O)c1ccc(-c2ccccc2)cc1.[Na+].[Na+]` [Compound 40] had a rIP of 0.38.
Still for that read-out and setting: the result for `CC(=O)N[C@@H]1[C@@H](NC(=O)CCl)[C@H](O)[C@](OCCCCCC(=O)[O-])(C(=O)[O-])O[C@H]1[C@H](O)[C@H](O)CNC(=O)c1ccc(-c2ccccc2)cc1.[Na+].[Na+]` [Compound 41] reads 0.37.
On to `CCCCC(=O)N[C@@H]1[C@@H](NC(C)=O)[C@H]([C@H](O)[C@H](O)CNC(=O)c2ccc(-c3ccccc3)cc2)O[C@@](OCCCCCC(=O)[O-])(C(=O)[O-])[C@H]1O.[Na+].[Na+]` [Compound 42], for which, under setting [2], the rIP is reported as 1.22.
In the case of `CC(=O)N[C@@H]1[C@@H](NC(=O)CF)[C@H](O)[C@](OCCCCCC(=O)[O-])(C(=O)[O-])O[C@H]1[C@H](O)[C@H](O)CNC(=O)c1ccc(-c2ccccc2)cc1.[Na+].[Na+]` [Compound 43], under setting [2], the rIP is reported as 0.25.
Under setting [2], `CC(=O)N[C@@H]1[C@@H](NC(=O)CO)[C@H](O)[C@](OCCCCCC(=O)[O-])(C(=O)[O-])O[C@H]1[C@H](O)[C@H](O)CNC(=O)c1ccc(-c2ccccc2)cc1.[Na+].[Na+]` [Compound 44] registered a rIP of 0.24.
For the compound `CC(=O)N[C@@H]1[C@@H](NC(=O)C2CC2)[C@H](O)[C@](OCCCCCC(=O)[O-])(C(=O)[O-])O[C@H]1[C@H](O)[C@H](O)CNC(=O)c1ccc(-c2ccccc2)cc1.[Na+].[Na+]` [Compound 45], the rIP under setting [2] stood at 0.81.
On to `CC(=O)N[C@@H]1[C@@H](NC(=O)CCCl)[C@H](O)[C@](OCCCCCC(=O)[O-])(C(=O)[O-])O[C@H]1[C@H](O)[C@H](O)CNC(=O)c1ccc(-c2ccccc2)cc1.[Na+].[Na+]` [Compound 46], for which the rIP under setting [2] is recorded as 0.84.
The same measure, in the same setting: for `CC(=O)N[C@@H]1[C@@H](NC(=O)CN(C)C)[C@H](O)[C@](OCCCCCC(=O)[O-])(C(=O)[O-])O[C@H]1[C@H](O)[C@H](O)CNC(=O)c1ccc(-c2ccccc2)cc1.[Na+].[Na+]` [Compound 47] the value was 0.18.
Take `CC(=O)N[C@@H]1[C@@H](NC(=O)c2ccccc2)[C@H](O)[C@](OCCCCCC(=O)[O-])(C(=O)[O-])O[C@H]1[C@H](O)[C@H](O)CNC(=O)c1ccc(-c2ccccc2)cc1.[Na+].[Na+]` [Compound 48]: the rIP under setting [2] turned out to be 0.93.
The compound `COc1cccc(C(=O)N[C@@H]2[C@@H](NC(C)=O)[C@H]([C@H](O)[C@H](O)CNC(=O)c3ccc(-c4ccccc4)cc3)O[C@@](OCCCCCC(=O)[O-])(C(=O)[O-])[C@H]2O)c1.[Na+].[Na+]` [Compound 49] had a rIP under setting [2] of 0.34.
With `CC(=O)N[C@@H]1[C@@H](NC(=O)c2cccc(C)c2)[C@H](O)[C@](OCCCCCC(=O)[O-])(C(=O)[O-])O[C@H]1[C@H](O)[C@H](O)CNC(=O)c1ccc(-c2ccccc2)cc1.[Na+].[Na+]` [Compound 50], the rIP under setting [2] worked out at 0.51.
Under setting [2], `CC(=O)N[C@@H]1[C@@H](NC(=O)c2ccccc2C)[C@H](O)[C@](OCCCCCC(=O)[O-])(C(=O)[O-])O[C@H]1[C@H](O)[C@H](O)CNC(=O)c1ccc(-c2ccccc2)cc1.[Na+].[Na+]` [Compound 51] returned a rIP of 0.13.
Under setting [2], `CC(=O)N[C@@H]1[C@@H](NC(=O)c2ccccc2Cl)[C@H](O)[C@](OCCCCCC(=O)[O-])(C(=O)[O-])O[C@H]1[C@H](O)[C@H](O)CNC(=O)c1ccc(-c2ccccc2)cc1.[Na+].[Na+]` [Compound 52] yielded a rIP of 0.12.
Regarding `CC(=O)N[C@H]1[C@H]([C@H](O)[C@H](O)CNC(=O)c2ccc(-c3ccccc3)cc2)O[C@@](OCCCCCC(=O)[O-])(C(=O)[O-])C[C@@H]1NC(=O)c1ccccc1.[Na+].[Na+]` [Compound 53], under setting [1], the rIP was 1.1.
The compound `CC(=O)N[C@H]1[C@H]([C@H](O)[C@H](O)CNC(=O)c2ccc(-c3ccccc3)cc2)O[C@@](OCCCCCC(=O)[O-])(C(=O)[O-])C[C@@H]1NC(=O)c1c(F)cccc1F.[Na+].[Na+]` [Compound 54] registered a rIP under setting [1] of 0.75.
`CC(=O)N[C@H]1[C@H]([C@H](O)[C@H](O)CNC(=O)c2ccc(-c3ccccc3)cc2)O[C@@](OCCCCCC(=O)[O-])(C(=O)[O-])C[C@@H]1NC(=O)c1cnccn1.[Na+].[Na+]` [Compound 55] had a rIP under setting [1] of 2.7.
As to `CC(=O)N[C@H]1[C@H]([C@H](O)[C@H](O)CNC(=O)c2ccc(-c3ccccc3)cc2)O[C@@](OCCCCCC(=O)[O-])(C(=O)[O-])C[C@@H]1NC(=O)c1cccs1.[Na+].[Na+]` [Compound 56], the rIP under setting [1] was 3.6.
`CC(=O)N[C@H]1[C@H]([C@H](O)[C@H](O)CNC(=O)c2ccc(-c3ccccc3)cc2)O[C@@](OCCCCCC(=O)[O-])(C(=O)[O-])C[C@@H]1NC(=O)c1ccco1.[Na+].[Na+]` [Compound 57] showed a rIP under setting [1] of 6.1.
Under setting [1], `CC(=O)N[C@H]1[C@H]([C@H](O)[C@H](O)CNC(=O)c2ccc(-c3ccccc3)cc2)O[C@@](OCCCCCC(=O)[O-])(C(=O)[O-])C[C@@H]1NC(=O)CC1NC(=O)NC1=O.[Na+].[Na+]` (some centres unmarked) [Compound 58] showed a rIP of 3.4.
In turn, `CC(=O)N[C@H]1[C@H]([C@H](O)[C@H](O)CNC(=O)c2ccc(-c3ccccc3)cc2)O[C@@](OCCCCCC(=O)[O-])(C(=O)[O-])C[C@@H]1NC(=O)c1ccc(C)cc1.[Na+].[Na+]` [Compound 59] returned a rIP under setting [1] of 0.24.
As for `CC(=O)N[C@H]1[C@H]([C@H](O)[C@H](O)CNC(=O)c2ccc(-c3ccccc3)cc2)O[C@@](OCCCCCC(=O)[O-])(C(=O)[O-])C[C@@H]1NC(=O)c1ccc(F)cc1.[Na+].[Na+]` [Compound 60], the rIP under setting [1] amounted to 2.1.
`CC(=O)N[C@H]1[C@H]([C@H](O)[C@H](O)CNC(=O)c2ccc(-c3ccccc3)cc2)O[C@@](OCCCCCC(=O)[O-])(C(=O)[O-])C[C@@H]1NC(=O)c1ccc(Cl)cc1.[Na+].[Na+]` [Compound 61] yielded a rIP under setting [1] of 3.4.

Source of the values: patent publication US10472381B2, “Sialic acid derivatives” (Reinhard Brossmer, priority 2014, dated 2019).
